For three compounds, efflux ratio, Caco-2 apparent permeability (Papp) and IC50 results are on record in US20240360148A1 (SUVALENT THERAPEUTICS, INC., priority 2021, published 2024).

Data set [1] can be described thus: Caco-2 permeability/efflux. It counts as in vitro ADME. Particulars: human, Caco-2, pH 7.4; B-A / A-B. The protocol: (§1) Caco-2 cells were obtained from American Tissue Culture Collection (Rockville, MD). The cells were maintained in Modified Eagle's medium (MEM), containing 10% heat-inactivated fetal bovine serum (FBS), and 1% non-essential amino acids, in CO2 at 37° C. Cells were seeded on polycarbonate filter inserts (Millipore, CAT #PSHT 010 R5). The cells were cultured for 21-28 days prior to the permeability experiments. The Lucifer Yellow permeability was checked before and after the assay. Compounds were dissolved at 10 mM in 100% dimethyl sulfoxide (DMSO) and diluted for studies in Hanks Balanced Salt Solution (HBSS, Invitrogen, Cat #14025-092) with 25 mM HEPES, pH 7.4. Compounds were tested at 10 µM in both the apical-to-basolateral (A-B) and basolateral-to-apical (B-A) directions, incubations were conducted at 37° C. for 90 min. At the end of incubation, samples were diluted by assay buffer, and analyzed by LC-MS/MS. The concentrations of the compounds were quantified by standard curve. The first comparator example (Comp. Ex. 1) is the chloro substituted thienodihydropyridine
(Caco-2 monolayers are a common model of the intestinal barrier.)

The subject of another data set is Caco-2 cells. The experiment in a line: Caco-2 permeability/efflux. Type of data set: in vitro ADME. The note with it: 10 uM, 37° C., 90 min, pH 7.4. As for the experimental part:
as §1

For another data set, the target named is SAE1 (Homo sapiens (Human), UniProt Q9UBE0+Q9UBT2). The experiment in a line: SAE High Throughput Biochemical Assay (HTRF), 15 min preincubation. The note with it: read-out: 15 min preincubation HTRF IC50 (μM) Ave, SAE1 12.5 nM, ATP 100 μM. In outline: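 SAE1 (12.5 nM) was preincubated with compound for 15 min at RT in HEPES pH 7.5, 0.1% BSA, 10 mM MgCl2. The reaction was then started with SUMO-GST and UBC9-His (40 nM each) plus 100 μM ATP for 45 min. After KF stop, HTRF (anti-GST-XL665/anti-His-EuK) was read at 2 h and overnight; some compounds were tested singly at 25 micromolar as percent of control.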
Sequence of SAE1 (Q9UBE0 whole entry): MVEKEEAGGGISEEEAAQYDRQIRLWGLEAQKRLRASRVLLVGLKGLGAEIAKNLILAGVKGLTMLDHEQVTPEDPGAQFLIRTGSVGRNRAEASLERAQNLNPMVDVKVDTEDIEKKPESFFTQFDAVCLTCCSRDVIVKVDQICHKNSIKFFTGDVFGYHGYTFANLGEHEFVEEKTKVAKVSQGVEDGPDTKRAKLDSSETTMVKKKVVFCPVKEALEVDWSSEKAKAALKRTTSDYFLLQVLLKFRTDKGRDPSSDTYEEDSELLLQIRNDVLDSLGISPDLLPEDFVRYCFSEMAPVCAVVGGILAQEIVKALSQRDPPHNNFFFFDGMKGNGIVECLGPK
Sequence of SAE1 (Q9UBT2 whole entry): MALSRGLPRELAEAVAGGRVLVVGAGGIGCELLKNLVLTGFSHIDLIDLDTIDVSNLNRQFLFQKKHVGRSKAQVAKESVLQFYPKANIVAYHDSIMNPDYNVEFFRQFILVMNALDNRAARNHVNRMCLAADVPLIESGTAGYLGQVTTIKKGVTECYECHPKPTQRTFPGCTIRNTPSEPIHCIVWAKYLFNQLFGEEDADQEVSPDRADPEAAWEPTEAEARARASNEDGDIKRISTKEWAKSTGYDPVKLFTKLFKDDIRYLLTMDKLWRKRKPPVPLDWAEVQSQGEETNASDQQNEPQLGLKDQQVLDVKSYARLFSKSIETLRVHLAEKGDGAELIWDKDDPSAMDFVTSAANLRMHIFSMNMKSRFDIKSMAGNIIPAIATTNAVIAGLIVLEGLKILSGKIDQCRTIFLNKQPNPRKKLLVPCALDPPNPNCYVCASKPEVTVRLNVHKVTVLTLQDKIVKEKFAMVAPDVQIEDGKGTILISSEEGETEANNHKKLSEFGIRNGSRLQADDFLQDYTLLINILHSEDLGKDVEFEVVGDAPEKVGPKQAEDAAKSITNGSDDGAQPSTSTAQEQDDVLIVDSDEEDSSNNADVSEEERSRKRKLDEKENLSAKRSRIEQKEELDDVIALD

Each structure is given as a SMILES string.

As for `CCn1cc(-c2c(F)cccc2[C@@H]2CN(C(=O)/C=C/CNC)Cc3sc(C#N)cc32)c(C(F)(F)F)n1` [Example 50], the efflux ratio at 90 min, 10 μM in data set [1] is 6. The Caco-2 apparent permeability (Papp) with Caco-2 cells (apical-to-basolateral) was 4 10^-6 cm/s; in the data set on Caco-2 cells (basolateral-to-apical), 21 10^-6 cm/s. For the same compound, on SAE1, the IC50 stood at 0.51 µM.

With `CCn1cc(-c2c(F)cccc2[C@@H]2CN(C(=O)/C=C/CN(C)C)Cc3sc(C#N)c(C)c32)c(C(F)(F)F)n1` [Example 46, (S, E)-6-(4-(dimethylamino)but-2-enoyl)-4-(2-(1-ethyl-3-(trifluoromethyl)-1 H-pyrazol-4-yl)-3-fluorophenyl)-3-methyl-4,5,6,7-tetrahydrothieno[2,3-c]pyridine-2-carbonitrile], in data set [1], the efflux ratio at 90 min, 10 μM was 1. Also, the Caco-2 apparent permeability (Papp) was 12.7 10^-6 cm/s in the data set with Caco-2 cells (apical-to-basolateral) and 11.6 10^-6 cm/s in the data set on Caco-2 cells (basolateral-to-apical). Also, the IC50 at SAE1 was 0.2 µM.

`C=CC(=O)N1Cc2sc(C#N)c(C)c2[C@H](c2cccc(F)c2-c2cn(CC)nc2C(F)(F)F)C1` [Compound 222]: in data set [1], the efflux ratio at 90 min, 10 μM is 1. Also, the results for the Caco-2 apparent permeability (Papp) with Caco-2 cells (apical-to-basolateral) and with Caco-2 cells (basolateral-to-apical) were 3.4 10^-6 cm/s and 4.1 10^-6 cm/s, respectively. At SAE1, the IC50 came to 0.1 µM.

One may read the efflux ratio as a quotient of directional permeabilities that is used to spot active efflux. What is called IC50 is the concentration needed to halve the response being measured.
